In US8232288B2, “Substituted benzimidazoles, benzothiazoles and benzoxazoles” (Gruenenthal GmbH, priority 2009, dated 2012):

How the values were obtained:
[1] = molecular target: T1, B1R receptor of the rat (rB1R) (Rattus norvegicus, UniProt P97583); experiment: Functional investigation on the bradykinin receptor 1 (B1R), FLIPR Ca2+ assay, rB1R cells; assay type: cell-based
T1 construct: expressed in transfected cells; host or cells: CHO K1 cells
T1 sequence (P97583 1-337): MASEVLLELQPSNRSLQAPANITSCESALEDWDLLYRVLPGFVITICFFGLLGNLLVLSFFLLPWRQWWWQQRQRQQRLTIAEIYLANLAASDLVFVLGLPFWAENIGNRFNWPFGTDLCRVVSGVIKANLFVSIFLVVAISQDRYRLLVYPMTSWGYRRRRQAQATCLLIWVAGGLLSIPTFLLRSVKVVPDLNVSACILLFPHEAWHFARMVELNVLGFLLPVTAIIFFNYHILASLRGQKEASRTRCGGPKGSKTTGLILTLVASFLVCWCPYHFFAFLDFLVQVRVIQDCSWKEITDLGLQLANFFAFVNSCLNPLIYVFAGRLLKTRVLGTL
Summary of the method: (§1)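 Stably transfected CHO K1 cells expressing human or rat B1R were loaded with Fluo-4, and Ca2+ fluorescence was read on a FLIPR. Compound (10 μM) was added first to measure activation. After 10–20 min, agonist at EC80 was added (Lys-Des-Arg9-bradykinin for hB1R, Des-Arg9-bradykinin for rB1R) to give % inhibition. IC50 values came from concentration series.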

[2] = molecular target: T2, human B1R receptor (hB1R) (Homo sapiens, UniProt P46663); experiment: Functional investigation on the bradykinin receptor 1 (B1R), FLIPR Ca2+ assay, hB1R cells; assay type: cell-based
T2 construct: expressed in transfected cells; host or cells: CHO K1 cells
T2 sequence (P46663 1-353): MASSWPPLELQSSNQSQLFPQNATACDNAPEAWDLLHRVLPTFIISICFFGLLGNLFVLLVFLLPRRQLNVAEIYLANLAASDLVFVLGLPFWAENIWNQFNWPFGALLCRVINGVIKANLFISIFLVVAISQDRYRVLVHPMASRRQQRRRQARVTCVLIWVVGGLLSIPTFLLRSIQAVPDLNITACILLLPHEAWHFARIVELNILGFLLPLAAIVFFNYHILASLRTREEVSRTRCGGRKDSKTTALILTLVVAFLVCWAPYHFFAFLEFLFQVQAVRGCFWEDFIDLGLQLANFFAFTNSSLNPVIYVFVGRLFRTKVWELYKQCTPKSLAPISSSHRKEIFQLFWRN
Summary of the method: as §1

With COc1cc(C)c(S(=O)(=O)N(C)c2nc3cccc(C(=O)N4CCC5(CC4)C(=O)NCC5c4ccncc4)c3n2C)c(C)c1 (centres unmarked) [I_CC-16, 4-methoxy-N,2,6-trimethyl-N-[1-methyl-7-(4-oxo-1-pyridin-4-yl-3,8-diazaspiro[4.5]decane-8-carbonyl)-1H-benzoimidazol-2-yl]-benzenesulfonic acid amide] the inhibition at 10 µM [1] was 82% and the inhibition at 10 µM [2] was 72%.
Work on COc1cc(C)c(S(=O)(=O)N(C)c2nc3ccc(C(=O)N4CCC5(CC4)CCN(c4ccncc4)CC5)cc3n2C)c(C)c1 [I_CC-17, 4-methoxy-N,2,6-trimethyl-N-[1-methyl-6-(3-pyridin-4-yl-3,9-diazaspiro[5.5]undecane-9-carbonyl)-1H-benzoimidazol-2-yl]-benzenesulfonic acid amide] yielded an inhibition at 10 µM [1] of 56% and an inhibition at 10 µM [2] of 71%.
With COc1cc(C)c(S(=O)(=O)N(C)c2nc3ccc(C(=O)N4CCC5(CC4)CCN(c4ccncc4)C5)cc3n2C)c(C)c1 [I_CC-18, 4-methoxy-N,2,6-trimethyl-N-[1-methyl-6-(3-pyridin-4-yl-3,8-diazaspiro[4.5]decane-8-carbonyl)-1H-benzoimidazol-2-yl]-benzenesulfonic acid amide] the inhibition at 10 µM [1] was 48% and the inhibition at 10 µM [2] was 39%.
COc1cc(C)c(S(=O)(=O)N(C)c2nc3c(C(=O)N4CCC5(CC4)CCN(c4ccncc4)CC5)cccc3s2)c(C)c1 [I_CC-19, 4-methoxy-N,2,6-trimethyl-N-[4-(3-pyridin-4-yl-3,9-diazaspiro[5.5]undecane-9-carbonyl)-benzothiazol-2-yl]-benzenesulfonic acid amide] showed an inhibition at 10 µM [1] of 80% and an inhibition at 10 µM [2] of 54%.
COc1cc(C)c(S(=O)(=O)N(C)Cc2nc3c(C(=O)N4CCC5(CC4)CCN(c4ccncc4)C5)cccc3s2)c(C)c1 [I_CC-20, 4-methoxy-N,2,6-trimethyl-N-[[4-(3-pyridin-4-yl-3,8-diazaspiro[4.5]decane-8-carbonyl)-benzothiazol-2-yl]-methyl]-benzenesulfonic acid amide] showed an inhibition at 10 µM [1] of 100% and an inhibition at 10 µM [2] of 93%.
COc1cc(C)c(S(=O)(=O)N(C)c2nc3c(C(=O)N4CCC5(CC4)CCN(c4ccncc4)C5)cccc3s2)c(C)c1 [I_CC-21, 4-methoxy-N,2,6-trimethyl-N-[4-(3-pyridin-4-yl-3,8-diazaspiro[4.5]decane-8-carbonyl)-benzothiazol-2-yl]-benzenesulfonic acid amide] gave an inhibition at 10 µM [1] of 65% and an inhibition at 10 µM [2] of 36%.
COc1cc(C)c(S(=O)(=O)N(C)Cc2nc3c(C(=O)N4CCC5(CC4)CCN(c4ccncc4)CC5)cccc3s2)c(C)c1 [I_CC-22, 4-methoxy-N,2,6-trimethyl-N-[[4-(3-pyridin-4-yl-3,9-diazaspiro[5.5]undecane-9-carbonyl)-benzothiazol-2-yl]-methyl]-benzenesulfonic acid amide] was tested, and the inhibition at 10 µM [1] was 93% and the inhibition at 10 µM [2] was 95%.
Work on COc1cc(C)c(C(=O)N(C)Cc2nc3cccc(C(=O)N4CCC5(CC4)CCN(c4ccncc4)CC5)c3[nH]2)c(C)c1 [I_CC-23, 4-methoxy-N,2,6-trimethyl-N-[[7-(3-pyridin-4-yl-3,9-diazaspiro[5.5]undecane-9-carbonyl)-1H-benzoimidazol-2-yl]-methyl]-benzamide] yielded an inhibition at 10 µM [1] of 105% and an inhibition at 10 µM [2] of 100%.
Work on COc1cc(C)c(C(=O)N(C)Cc2nc3cccc(C(=O)N4CCC5(CC4)CCN(c4ccncc4)C5)c3[nH]2)c(C)c1 [I_CC-24, 4-methoxy-N,2,6-trimethyl-N-[[7-(3-pyridin-4-yl-3,8-diazaspiro[4.5]decane-8-carbonyl)-1H-benzoimidazol-2-yl]-methyl]-benzamide] yielded an inhibition at 10 µM [1] of 101% and an inhibition at 10 µM [2] of 98%.
COc1cc(C)c(S(=O)(=O)N(C)C(C)c2nc3cccc(C(=O)N4CCC5(CCN(Cc6c[nH]cn6)CC5)CC4)c3[nH]2)c(C)c1 (centres unmarked) [I_CC-25, N-[1-[7-[9-(1H-Imidazol-4-yl-methyl)-3,9-diazaspiro[5.5]undecane-3-carbonyl]-1H-benzoimidazol-2-yl]-ethyl]-4-methoxy-N,2,6-trimethyl-benzenesulfonic acid amide] gave an inhibition at 10 µM [1] of 103% and an inhibition at 10 µM [2] of 58%.
